Results taken from article PMC3793977, “High-Throughput Screening (HTS) and Hit Validation to Identify Small Molecule Inhibitors with Activity against NS3/4A proteases from Multiple Hepatitis C Virus Genotypes” (PLoS ONE, 2013).

Assays:
[1] = molecular target: T1, NS3 protease domain (Hepatitis C virus genotype 1b, UniProt Q9WMX2); assay: Fluorescence enzymatic assay with NS3 protease domain alone; assay type: biochemical; details: NS3/4A protease domain only; read-out: IC50 NS3 protease domain
T1 construct: the full-length NS3/4A and the NS3/4A protease domain alone
Protocol: A series of compound concentrations (0 to 200 µM final concentration at 2-fold serial dilution) in 100% DMSO were prepared in a 384-well plate. 20 µL of enzyme solution was distributed to wells, and 0.5 µL of varying concentration of compounds were added and incubated for 5 minutes. The enzyme reaction was initiated by adding 5 µL of the substrate, and its activity was continuously monitored for 6 minutes. The IC50 values were calculated by fitting with the Hill equation (1), with OriginPro 8.5 (OriginLab, Inc.) where y is percent inhibition, x is inhibitor concentration, n is the slope of the concentration–response curve (Hill slope), and Vmax is maximal inhibition from two to four independent assays. [drawing 1] (1)

[2] = molecular target: T2, full-length NS3/4A genotype 1b mutant A156S (Hepatitis C virus genotype 1b, UniProt Q9WMX2, A1182S); assay: Inhibition assay with drug-resistant mutant A156S; assay type: biochemical
T2 construct: wild-type HCV NS3 (HCV polyprotein residues 1027–1657); His-tag (N); made in house
Protocol: (§1) The full-length genes of wild-type HCV NS3 (HCV polyprotein residues 1027–1657) with a his-tag at the N-terminus and NS4A (residues 1658–1711) with no tag were cloned, co-expressed, and purified as described. Eight NS3 drug resistant mutants (V36M, V36A, T54A, R155K, R155T, A156T, A156S, and 156V) were generated by mutagenesis using full-length, wild-type NS3-containing recombinant plasmid (pETDuet-1/FL NS3/4A) as a template. The over-expression and purification of all mutants were performed by the same method as the wild-type with minor modifications.
(§2) The inhibitory activity of the final hit compounds from HTS were tested against three other HCV genotypes (1a, 2a, and 4d), along with a control (genotype 1b) and five NS3 drug-resistant mutants. Eight full-length NS3 mutants (V36M, R155K, A156T, A156S, 156V, V36A, T54A, and R155T) were generated by mutagenesis and purified, and the three HCV NS3/4A protease genotypes were purchased from Anaspec. Unfortunately the enzyme activities of the three mutants V36A, T54A, and R155T were much less than that of the rest of the mutants and were insufficient for testing, therefore mutant studies were done with the five active mutants. Continuous kinetic assays were performed against all hit compounds in the same way as the wild-type NS3/4A. […]

[3] = molecular target: T3, full-length NS3/4A protease (genotype 1b) (Hepatitis C virus genotype 1b, UniProt Q9WMX2); assay: biochemical
T3 construct: wild-type HCV NS3 (HCV polyprotein residues 1027–1657); His-tag (N); made in house

[4] = Microsomal stability assay; assay type: in vitro ADME, mouse
Protocol: A typical incubation mixture (100 µL total volume) for the metabolic stability studies contained 1 µM (final concentration) test compounds, 0.5 mg/mL microsomal protein (pooled Balb/c mouse liver microsomes prepared as described previously), 100 mM Tris-HCl buffer (pH7.4), and NADPH-generating system (5 mM isocitric acid, 0.2 unit/mL isocitric acid dehydrogenase, 5 mM magnesium chloride, 1 mM NADP^+). After pre-incubation at 37°C for 5 minutes, the reactions were started by addition of NADP^+ and further incubated for another 0, 5, 10, and 20 minutes. For control experiments, NADPH and/or liver microsomes were omitted from these incubations. The reactions were terminated by adding 100 µL ice-cold acetonitrile containing phenytoin (1 µM) as an internal standard and kept on ice for 30 minutes, followed by centrifugation at 16,100 g for 15 minutes to obtain the supernatant. Aliquots (5 µL) were then analyzed for substrate disappearance using liquid chromatography-tandem mass spectrometry (Agilent 1200 HPLC interfaced with Applied Biosystems Qtrap 3200) equipped with an electrospray ion source. Chromatographic separation was carried out with a Waters XTerra MS C18 column (2.1×50 mm, 3.5 µm; Agilent Technologies, Santa Clara, CA). The mobile phases consisted of solvent A (0.1% (v/v) aqueous formic acid) and solvent B (acetonitrile). A 250 µL/min flow rate gradient was developed for each test compound over 10 minutes (Table S2 in File S1). Mass detection of test substrates and internal standard were followed in a positive ion mode by examining multiple reaction monitoring (MRM) pairs. The spraying needle voltage was set at 5000 V. Curtain gas was set at 20; gas 1 and gas 2 were set at 45 and 50, respectively; collision assisted dissociation gas was at medium; and the source heater probe temperature was at 500°C. The test compounds were quantified by comparing the ratio of ion currents obtained for the substrates and an internal standards calibration curve. Data acquisition and processing were accomplished using Analyst software (version 1.4.1; Applied Biosystems). Apparent half-lives (t1/2) for the disappearance of parent drugs were calculated from the pseudo-first-order rate constants (ke) obtained by linear regression of plots of log [drug remaining] versus time (GraphPad Prism 5 software, La Jolla, CA) using the equation: t1/2 = 0.693/ke.

[5] = molecular target: T4, full-length NS3/4A genotype 1b mutant A156T (Hepatitis C virus genotype 1b, UniProt Q9WMX2, A1182T); assay: Inhibition assay with drug-resistant mutant A156T; assay type: biochemical
T4 construct: wild-type HCV NS3 (HCV polyprotein residues 1027–1657); His-tag (N); made in house
Protocol: as §1, §2

[6] = molecular target: T5, full-length NS3/4A genotype 1b mutant V36M (Hepatitis C virus genotype 1b, UniProt Q9WMX2, V1062M); assay: Inhibition assay with drug-resistant mutant V36M; assay type: biochemical; details: genotype 1b full-length mutant
T5 construct: wild-type HCV NS3 (HCV polyprotein residues 1027–1657); His-tag (N); made in house
Protocol: as §1, §2

[7] = molecular target: T6, NS3/4A protease genotype 2a (Hepatitis C virus genotype 2a, UniProt Q99IB8); assay: Inhibition assay with NS3/4A from genotype 2a; assay type: biochemical
T6 construct: against the NS3/4A protease domains from three additional HCV genotypes (1a, 2a, and 4d); purchased Anaspec
Protocol: The inhibitory activity of the final hit compounds from HTS were tested against three other HCV genotypes (1a, 2a, and 4d), along with a control (genotype 1b) and five NS3 drug-resistant mutants. Eight full-length NS3 mutants (V36M, R155K, A156T, A156S, 156V, V36A, T54A, and R155T) were generated by mutagenesis and purified, and the three HCV NS3/4A protease genotypes were purchased from Anaspec. Unfortunately the enzyme activities of the three mutants V36A, T54A, and R155T were much less than that of the rest of the mutants and were insufficient for testing, therefore mutant studies were done with the five active mutants. Continuous kinetic assays were performed against all hit compounds in the same way as the wild-type NS3/4A. As a control, full-length NS3/4A (genotype 1b) was tested under the same conditions for direct comparison for each plate.

[8] = molecular target: T7, full-length NS3/4A genotype 1b mutant A156V (Hepatitis C virus genotype 1b, UniProt Q9WMX2, A1182V); assay: Inhibition assay with drug-resistant mutant A156V; assay type: biochemical; details: genotype 1b full-length mutant
T7 construct: wild-type HCV NS3 (HCV polyprotein residues 1027–1657); His-tag (N); made in house
Protocol: as §1, §2

SMILES: Cc1cc(NC(=O)Cc2csc(NS(=O)(=O)c3ccccc3)n2)ccc1Br [Compound 12]
- IC50 [1]: 9.3 ± 1.6 µM
- IC50 [2]: ≤ 20 µM
- LE ([3]; calculated with IC50 values from the full-length NS3/4A): 0.29 kcal/mol/heavy atom
- IC50 ([3]; purified full-length NS3/4A, genotype 1b wild-type, read-out: IC50 Full-length NS3/4A): 2200 ± 400 nM
- half-life at 1 µM ([4]; Balb/c, pH 7.4, mouse liver microsomes 0.5 mg/mL, 1 µM compound, NADPH-generating system, read-out: Microsomal stability t1/2): 21.7 min
- microsomal stability ([4]; mouse liver microsomes, rounded values): 22 min
- IC50 [5]: ≤ 20 µM
- IC50 [6]: ≤ 20 µM
- IC50 ([7]; IC50 Purified NS3/4A Sub-genotype 2a, genotype 2a): 12.7 ± 1.2 µM
- fold less effective against genotype 2a than 1b in the biochemical assay ([7]; purified enzymes): ~6 fold
- IC50 [8]: ≤ 20 µM
